Reference: ChEMBL document CHEMBL5308541, “MAIP: An Open-Source Tool to Enrich High-Throughput Screening Output and Identify Novel, Druglike Molecules with Antimalarial Activity” (ACS Med Chem Lett, 2023)
Values joined by “and” are separate entries in the source; they are usually repeats but may differ in a detail not shown here. Identical values can stand only once.

Experiments:
[1] = tested on: Plasmodium falciparum; experiment: Hit confirmation in dose-response curve in NF54 pLDH assay, at 72h; assay type: functional, organism-based, Erythrocyte; design: timepoint 72 hour
[2] = tested on: Plasmodium falciparum; experiment: Hit confirmation in dose-response curve in NF54 nanoGlo assay, at 12h; assay type: functional, organism-based, Erythrocyte; design: timepoint 12 hour
[3] = tested on: Plasmodium falciparum; experiment: Re-testing in dose-response curve in 3D7 pLDH assay, at 72h; assay type: functional, organism-based, Erythrocyte; design: timepoint 72 hour
[4] = tested on: Plasmodium falciparum; experiment: Hit confirmation in dose-response curve in Dd2 pLDH assay, at 72h; assay type: functional, organism-based, Erythrocyte; design: timepoint 72 hour
[5] = tested on: HepG2; experiment: (§1) Re-testing in dose-response curve in HepG2 cytotoxicity assay, at 72h; assay type: toxicity, cell-based, Homo sapiens; design: timepoint 72 hour; conditions: hepg2
[6] = as §1; assay type: toxicity, cell-based, Homo sapiens; design: timepoint 72 hour; conditions: human, HepG2 cells
[7] = (§2) Hit confirmation in dose-response curve in HepG2 cytotoxicity assay, at 72h; assay type: toxicity, cell-based, Homo sapiens; design: timepoint 72 hour; conditions: human, HepG2 cells
[8] = tested on: Plasmodium falciparum; experiment: Hit confirmation in dose-response curve in NF54 nanoGlo assay, at 72h; assay type: functional, organism-based, Erythrocyte; design: timepoint 72 hour
[9] = tested on: Plasmodium falciparum; experiment: Re-testing in dose-response curve in Dd2 pLDH assay, at 72h; assay type: functional, organism-based, Erythrocyte; design: timepoint 72 hour
[10] = tested on: HepG2; experiment: as §2; assay type: toxicity, cell-based, Homo sapiens; design: timepoint 72 hour; conditions: hepg2
[11] = Plasmodium falciparum, NF54, Erythrocyte, 72 h
[12] = Plasmodium falciparum, NF54, Erythrocyte, 12 h
[13] = Plasmodium falciparum, 3D7, Erythrocyte, 72 h
[14] = Plasmodium falciparum, Dd2, Erythrocyte, 72 h

| SMILES | IC50 [1, 11] | IC50 [2, 12] | IC50 [3, 13] | IC50 ([3]; erythrocyte) | IC50 [4, 14] | IC50 [8, 11] | IC50 [9, 14] | IC50 ([9]; erythrocyte) | IC50 ([1]; erythrocyte) | IC50 ([2]; erythrocyte) | IC50 ([4]; erythrocyte) | IC50 ([8]; erythrocyte) | IC50 [5] | IC50 at 72 h [6] | IC50 at 72 h [7] | IC50 [10] |
| --- | --- | --- | --- | --- | --- | --- | --- | --- | --- | --- | --- | --- | --- | --- | --- | --- |
| CC(C)c1ccc(-c2nc(CN3CCCCC3)cc(CN3CCCCC3)c2O)cc1 | – | – | – | – | – | – | 949 nM | 923 nM | 2690 nM | 3980 nM | 1580 nM | 1780 nM | > 25000 nM | – | – | > 10000 nM |
| O=C(n1nnc2cc(Cl)c(Cl)cc21)C(F)(F)F | 4900 nM | > 10000 nM | 254 nM | 291 nM | 955 nM | > 10000 nM | 1050 nM | 937 nM | – | – | – | – | 24800 nM | 21000 nM | > 10000 nM | – |
| c1ccc(CNc2ccc(-c3noc(C45CCCN(CCC4)C5)n3)cn2)cc1 | 2630 nM | 3240 nM | ~9410 nM | 9780 nM | 1990 nM | 2090 nM | – | – | – | – | – | – | 20100 nM | 20400 nM | > 10000 nM | – |
| CCOc1cc(C(=O)NC2CCN(CC3CCCC3)CC2)cc(-c2ccccc2)c1OC | 3890 nM | 3720 nM | – | 593 nM [middle of 6 runs] | 1580 nM | 1480 nM | 11500 nM | 10700 nM and 8370 nM and 8120 nM | – | – | – | – | 10300 nM | 10000 nM | > 10000 nM | – |

Continued, in another order:

| IC50 [1, 11] | IC50 [2, 12] | IC50 [3, 13] | IC50 ([3]; erythrocyte) | IC50 [4, 14] | IC50 [8, 11] | IC50 [9, 14] | IC50 ([9]; erythrocyte) | IC50 ([1]; erythrocyte) | IC50 ([2]; erythrocyte) | IC50 ([4]; erythrocyte) | IC50 ([8]; erythrocyte) | SMILES | IC50 [5] | IC50 at 72 h [6] | IC50 at 72 h [7] | IC50 [10] |
| --- | --- | --- | --- | --- | --- | --- | --- | --- | --- | --- | --- | --- | --- | --- | --- | --- |
| 724 nM | > 10000 nM | 460 nM | 360 nM | 1660 nM | 1020 nM | 1740 nM | 1760 nM | – | – | – | – | CN(C)C1(CNc2nc(C(F)(F)F)nc3cc(F)ccc23)CCCCCC1 | 9280 nM | 8910 nM | > 10000 nM | – |
| 1550 nM | 4790 nM | – | 620 nM [middle of 4 runs] | 1380 nM | 1820 nM | 1370 nM | 1410 nM | – | – | – | – | CCCc1cccc(CNC2CCN(C3CCN(C)CC3)CC2)c1 | 7920 nM | 11000 nM | > 10000 nM | – |
| 1380 nM | 1550 nM | 621 nM | 597 nM | 955 nM | 955 nM | 1190 nM | 1230 nM | – | – | – | – | Cc1ccc(-c2cc(C(=O)NC3CCN(C4CCN(C)CC4)CC3)n[nH]2)cc1C | 7030 nM | 5930 nM | 7760 nM | – |
| 891 nM | 1700 nM | – | 633 nM [middle of 4 runs] | 692 nM | 724 nM | 1380 nM | – | – | – | – | – | C[C@@H](CNC1CCN(C2CCN(C)CC2)CC1)c1cccc(Cl)c1 | 8180 nM | 9550 nM | > 10000 nM | – |
| 1740 nM | 3550 nM | 391 nM | ~385 nM | 1290 nM | 1580 nM | – | – | – | – | – | – | Fc1ccc(-n2cc(CNCCC3CCN(c4ccncc4)CC3)cn2)cc1 | 5840 nM | 5110 nM | > 10000 nM | – |
| 1200 nM | 1410 nM | 478 nM | ~748 nM | 1170 nM | 1200 nM | – | – | – | – | – | – | Cc1ccc(-c2cccc3c(C(=O)NCCCN4CCC(N5CCCCC5)CC4)cc(C)nc23)cc1 | 3450 nM | 4110 nM | 5010 nM | – |
